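All cell lines were grown in 96-well plates and treated with compound for 48 hours. The concentration for 50% growth inhibition is given as GI50.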 Active and inactive are the calls of the source. Rule as the data show it: active = GI50 up to about 1.1 µM and inactive = higher.

Assay in all cases: inhibition of tumour cell growth, NCI panel, 48 h
Assay [1] concerns COLO 205.
The test system of assay [2] is EKVX.
Assay [3] deals with HCC 2998.
In assay [4] the test system is HCT-116.
The subject of assay [5] is Hs-578T.
Assay [6] deals with IGROV-1.
The subject of assay [7] is K562.
For assay [8], the system named is MDA-MB-231.
Assay [9] has as its system MDA-N.
Assay [10] deals with NCI-H460.
Assay [11] concerns NCI/ADR-RES.
For assay [12], the system named is PC-3.
Assay [13] relates to SK-MEL-2.
The test system of assay [14] is SNB-75.
Assay [15] concerns SR.
Assay [16] has as its system TK-10.
Assay [17] deals with HOP-92.
Assay [18] relates to DU-145.
For assay [19], the system named is HL-60.

With `O=C(Nc1ccc(Cl)cc1)NS(=O)(=O)c1coc2cc(F)ccc2c1=O`, the GI50 was > 100 µM (inactive) in [1]; > 100 µM (inactive) in [2]; 80.4 µM (inactive) in assay [3]; > 10 µM (inactive) in [4]; > 100 µM (inactive) in assay [5]; > 100 µM (inactive) in [6]. Also, the GI50 in assay [7] is 19.7 µM (inactive); in [8], > 100 µM (inactive); in assay [9] it was > 100 µM (inactive); in [10] it was > 100 µM (inactive); in assay [11] it was > 100 µM (inactive); in assay [12], > 100 µM (inactive). For the same molecule, the GI50 in assay [13] is 52.6 µM (inactive); in [14], > 100 µM (inactive); in assay [15], 95.9 µM (inactive); in assay [16], > 100 µM (inactive).

As to `O=C(Cc1nc2ccccc2s1)C(=O)Nc1ccc(Cl)cc1Cl`, the GI50 is > 100 µM (inactive) in assay [1]; > 100 µM (inactive) in [3]; > 100 µM (inactive) in assay [4]; 65.8 µM (inactive) in [17]; > 100 µM (inactive) in assay [6]; > 100 µM (inactive) in [7]. Besides, the GI50 in assay [10] is > 100 µM (inactive); in [13], > 100 µM (inactive); in assay [14], 47.4 µM (inactive); in assay [15], > 100 µM (inactive); in assay [16], > 100 µM (inactive).

Turning to `CCC(CN(C)C)C(=O)c1ccco1` (stereo unspecified), the GI50 was > 100 µM (inactive) in [18]; > 100 µM (inactive) in assay [2]; > 100 µM (inactive) in [3]; > 100 µM (inactive) in assay [4]; 23 µM (inactive) in assay [17]; 98.6 µM (inactive) in [5]. Besides, the GI50 in assay [6], in assay [7], in [8], in [10], in assay [11] and in assay [12] was > 100 µM (inactive) each time. Further, the GI50 in [13], in [14], in [15] and in [16] was > 100 µM (inactive) in each case.

Take `Cn1c(=O)cc(N2CCCC2)[nH]c1=O`: the GI50 in assay [1], in assay [18], in assay [2], in assay [3], in assay [4] and in assay [19] was > 100 µM (inactive) in each case. Further, the GI50 in assay [17], in assay [6], in assay [7], in assay [8], in assay [10] and in [11] was > 100 µM (inactive) in each case. Moreover, the GI50 in assay [12], in [13], in assay [14], in [15] and in [16] was > 100 µM (inactive) each time.

For `CCOc1ccccc1NC(=O)C(=O)C(/C(=N/N)C(=O)OC)c1nc2ccc([N+](=O)[O-])cc2nc1O` (stereo unspecified), the GI50 in assay [2] is 97.5 µM (inactive); in [3], > 100 µM (inactive); in assay [4], > 100 µM (inactive); in assay [19], > 100 µM (inactive); in assay [17], 46 µM (inactive); in assay [5], > 100 µM (inactive). For the same molecule, the GI50 in assay [6] was 28.5 µM (inactive); in assay [7], > 100 µM (inactive); in assay [8], > 100 µM (inactive); in assay [9], > 100 µM (inactive); in [10], > 100 µM (inactive); in [11], > 100 µM (inactive). The GI50 in [12] was > 100 µM (inactive); in assay [13], > 100 µM (inactive); in assay [14], 71.4 µM (inactive); in assay [15], > 100 µM (inactive); in [16] it was > 100 µM (inactive).

`CCC(C)[C@H](NC(=O)N[C@H](C)c1ccccc1)C(=O)OC` (stereo partly specified): the GI50 in assay [1], in [18], in assay [2], in [3], in assay [4] and in assay [19] was > 100 µM (inactive) throughout. Further, the GI50 in assay [17], in assay [6], in assay [7], in [8], in assay [9] and in assay [10] was > 100 µM (inactive) each time. Besides, the GI50 in [12], in assay [13], in assay [14], in [15] and in assay [16] was > 100 µM (inactive) in each case.

`CS(=O)(=O)c1nc(-c2cc3c(c(S(C)(=O)=O)n2)CCC3)cc2c1CCC2`: the GI50 in [1], in assay [18], in [2], in [3], in assay [4] and in assay [19] was > 100 µM (inactive) each time. The GI50 in assay [6] was 44.3 µM (inactive); in [7], > 100 µM (inactive); in [8], 24.4 µM (inactive); in [9], > 100 µM (inactive); in assay [10] it was > 100 µM (inactive); in assay [11], > 100 µM (inactive). The GI50 is > 100 µM (inactive) in assay [12], > 100 µM (inactive) in assay [13], 22.4 µM (inactive) in [14] and > 100 µM (inactive) in assay [16].

For `O=C1c2ccccc2C(=O)C2NC(CCCCCSSCCCCCC3=NC4C(=O)c5ccccc5C(=O)C4N3)=NC12` (stereo unspecified), the GI50 was > 100 µM (inactive) in assay [18]; > 100 µM (inactive) in [2]; 14.8 µM (inactive) in assay [4]; > 100 µM (inactive) in assay [19]; 5.56 µM (inactive) in assay [17]; 25.7 µM (inactive) in assay [5]. Further, the GI50 in assay [6] was 12.9 µM (inactive); in assay [7] it was > 100 µM (inactive); in [8], 96.2 µM (inactive); in assay [10], > 100 µM (inactive); in [11] it was > 100 µM (inactive); in [12] it was > 100 µM (inactive). Further, the GI50 in assay [13] is > 100 µM (inactive); in assay [15], 1.48 µM (inactive); in assay [16], 68.2 µM (inactive).

Turning to `COc1cccc2c1OC1c3ccccc3OCC1C2` (stereo unspecified), the GI50 in assay [1] is > 100 µM (inactive); in assay [18] it was > 100 µM (inactive); in assay [2] it was 44.2 µM (inactive); in assay [3] it was > 100 µM (inactive); in [4], 74.6 µM (inactive); in assay [6], 41.1 µM (inactive). Besides, the GI50 is > 100 µM (inactive) in assay [7]; > 100 µM (inactive) in assay [8]; > 100 µM (inactive) in assay [9]; 34.6 µM (inactive) in assay [11]; 82.6 µM (inactive) in assay [12]; > 100 µM (inactive) in [13]. The GI50 in assay [14] is < 0.01 µM (active); in assay [15], > 100 µM (inactive); in assay [16], 43.9 µM (inactive).

With `O=c1[nH]nc(Nc2ccc(Cl)cc2)c2nnn(-c3ccc([N+](=O)[O-])cc3)c12`, the GI50 in assay [1] is 13.3 µM (inactive); in assay [18] it was 12.1 µM (inactive); in [2], 30.6 µM (inactive); in assay [3] it was 15.2 µM (inactive); in assay [4], 13.9 µM (inactive); in assay [19] it was 98.6 µM (inactive). In addition, the GI50 in assay [17] was 14.5 µM (inactive); in assay [6] it was 31.6 µM (inactive); in assay [7] it was 6.35 µM (inactive); in [8], 42.4 µM (inactive); in assay [10], 30.6 µM (inactive); in assay [11], 23.1 µM (inactive). For the same molecule, the GI50 in assay [12] is 18.3 µM (inactive); in [13], 24.2 µM (inactive); in [14], 39.8 µM (inactive); in assay [15], 28.1 µM (inactive); in assay [16], 24.7 µM (inactive).

As to `O=C1CCCC2=C1CC1=C(CCCC1=O)N2c1cccc([N+](=O)[O-])c1`, the GI50 in assay [2], in [3], in assay [19], in [5], in assay [6] and in assay [7] was > 100 µM (inactive) each time. Moreover, the GI50 in [10], in assay [11], in assay [12], in assay [14], in assay [15] and in assay [16] was > 100 µM (inactive) each time.

On to `COc1ccc(C2C3CCc4ccccc4C3=NN2S(=O)(=O)c2cccc(C(=O)O)c2OC)cc1` (stereo unspecified), for which the GI50 is 1.84 µM (inactive) in assay [1]; 27.7 µM (inactive) in [18]; 15 µM (inactive) in assay [2]; 10.3 µM (inactive) in assay [4]; 7.53 µM (inactive) in [19]; 15.7 µM (inactive) in [17]. Also, the GI50 in assay [6] is 1.09 µM (active); in assay [7] it was 4.06 µM (inactive); in assay [8], 10.4 µM (inactive); in assay [9] it was 2.52 µM (inactive); in [10], 5.66 µM (inactive); in [11] it was 2.81 µM (inactive). Further, the GI50 in [12] was 9.02 µM (inactive); in [13], 15.7 µM (inactive); in assay [15], 3.8 µM (inactive); in assay [16], 22.9 µM (inactive).

Consider `c1ccc(-c2cc(-c3cccs3)c(-c3cccs3)s2)cc1`, for which the GI50 in [1] was 47.3 µM (inactive); in assay [18] it was 64 µM (inactive); in [2], 81.8 µM (inactive); in [3] it was 25 µM (inactive); in [4], 19.6 µM (inactive); in assay [19] it was 25.5 µM (inactive). Further, the GI50 in assay [17] was > 100 µM (inactive); in assay [5] it was 70 µM (inactive); in assay [6] it was > 100 µM (inactive); in assay [8], 29.9 µM (inactive); in [9] it was 14.6 µM (inactive); in assay [10], 56.8 µM (inactive). For the same molecule, the GI50 in assay [11] is 41.4 µM (inactive); in assay [14], 20 µM (inactive); in [15], 18.9 µM (inactive); in assay [16] it was 32.2 µM (inactive).

These data come from ChEMBL document CHEMBL1201862, “PubChem BioAssay data set” (2004).
